According to ChEMBL document CHEMBL4028815, “Novel phosphonate analogs of sulforaphane: Synthesis, in vitro and in vivo anticancer activity” (Eur J Med Chem, 2017):
pIC50: −log10 of the molar value. The source made the active and inactive calls. No cut-off for these calls is given here.

Legend:
[1] = tested on: LoVo; test: Potency index, ratio of benzyl isothiocyanate IC50 to compound IC50 for human LoVo cells; assay type: functional
[2] = tested on: LoVo; test: Cytotoxicity against human LoVo cells after 72 hrs by sulforhodamine B assay; assay type: functional, cell-based
[3] = tested on: LoVo; test: Potency index, ratio of sulforaphane IC50 to compound IC50 for human LoVo cells; assay type: functional
[4] = Potency index, ratio of sulforaphane IC50 to compound IC50 for human LoVo/DX cell; assay type: functional
[5] = Cytotoxicity against human LoVo/DX cells after 72 hrs by sulforhodamine B assay; assay type: functional, cell-based
[6] = Potency index, ratio of benzyl isothiocyanate IC50 to compound IC50 for human LoVo/DX cell; assay type: functional
[7] = tested on: 4T1; test: Anti-tumor activity against mouse 4T1 cells implanted in BALB/c mdb mouse assessed as tumor growth inhibition at 25 umol/kg, ip administered 3 times weekly measured on day 29 post cell innoculum relative to control; settings: 4T1, ip, 696 h, read-out: TGI
[8] = tested on: LoVo/DX; test: Induction of apoptosis in human LoVo/DX cells assessed as increase in caspase3/7 activity at >15 uM using Ac-DEVD-ACC as substrate pretreated for 24 hrs followed by substrate addition measured for 2 hrs by fluorescence assay; assay type: functional, cell-based
[9] = tested on: LoVo; test: Induction of apoptosis in human LoVo cells assessed as increase in caspase3/7 activity at >15 uM using Ac-DEVD-ACC as substrate pretreated for 24 hrs followed by substrate addition measured for 2 hrs by fluorescence assay; assay type: functional, cell-based
[10] = Resistance index, ratio of IC50 for human HL60/MX2 cells to IC50 for human HL60 cells; assay type: functional
[11] = tested on: Mus musculus; test: Toxicity in BALB/c mdb mouse implanted with mouse 4T1 cells assessed as body weight loss at 450 umol/kg, ip administered five times weekly starting from day 15 post cell innoculum; assay type: organism-based; settings: in vivo
[12] = tested on: A549; test: Cytotoxicity against human A549 cells after 72 hrs by sulforhodamine B assay; assay type: functional, cell-based; settings: A549, 72 h
[13] = tested on: Mus musculus; test: Toxicity in BALB/c mdb mouse implanted with mouse 4T1 cells assessed as serum ALT level at 450 umol/kg, ip administered five times weekly measured at 29 day post cell innoculum (reference value: 23.8 +/- 2.2 U/L); assay type: organism-based; settings: in vivo, 696 h
[14] = Cytotoxicity against human LoVo/DX cells assessed as cell death at >15 uM after 24 hrs; assay type: cell-based
[15] = tested on: LoVo/DX; test: Cell cycle arrest in human LoVo/DX cells at 15 uM after 24 hrs by propidium iodide staining based flow cytometric method; assay type: functional
[16] = tested on: LoVo; test: Cell cycle arrest in human LoVo cells at 15 uM after 24 hrs by propidium iodide staining based flow cytometric method; assay type: functional
[17] = tested on: BALB/3T3; test: Cytotoxicity against mouse BALB/3T3 cells after 72 hrs by sulforhodamine B assay; assay type: cell-based; settings: BALB/3T3, 72 h
[18] = tested on: 4T1; test: Anti-tumor activity against mouse 4T1 cells implanted in BALB/c mdb mouse assessed as lung metastasis at 450 umol/kg, ip administered five times weekly measured at 29 days post cell innoculum (reference value: 56 +/- 25); assay type: functional
[19] = tested on: 4T1; test: Cytotoxicity against mouse 4T1 cells after 72 hrs by sulforhodamine B assay; assay type: functional, cell-based; settings: 4T1, 72 h
[20] = tested on: Mus musculus; test: Nephrotoxicity in BALB/c mdb mouse implanted with mouse 4T1 cells assessed as kidney weight at 450 umol/kg, ip administered five times weekly measured at 29 day post cell innoculum (reference value: 0.136 +/- 0.006 g); assay type: toxicity, organism-based; settings: in vivo, 696 h
[21] = tested on: Mus musculus; test: Toxicity in BALB/c mdb mouse implanted with mouse 4T1 cells assessed as WBC level at 450 umol/kg, ip administered five times weekly measured at 29 day post cell innoculum (reference value: 212.3 +/- 82.8 10^3/uL); assay type: organism-based; settings: in vivo, 696 h
[22] = tested on: MES-SA; test: Cytotoxicity against human MESSA cells after 72 hrs by sulforhodamine B assay; assay type: functional, cell-based
[23] = tested on: Mus musculus; test: Toxicity in BALB/c mdb mouse implanted with mouse 4T1 cells assessed as spleen weight at 450 umol/kg, ip administered five times weekly measured at 29 day post cell innoculum (reference value: 0.603 +/- 0.133 g); assay type: organism-based; settings: in vivo, 696 h
[24] = tested on: LoVo/DX; test: Induction of apoptosis in human LoVo/DX cells assessed as late apoptotic cells at 15 uM after 24 hrs by APC-Annexin-V/propidium iodide staining based flow cytometric method relative to control; assay type: functional
[25] = tested on: Mus musculus; test: Hepatotoxicity in BALB/c mdb mouse implanted with mouse 4T1 cells assessed as liver weight at 450 umol/kg, ip administered five times weekly measured at 29 day post cell innoculum (reference value: 1.2 +/- 0.13 g); assay type: toxicity, organism-based; settings: in vivo, 696 h
[26] = tested on: HL-60; test: Cytotoxicity against human HL60 cells after 72 hrs by sulforhodamine B assay; assay type: functional, cell-based; settings: HL-60, 72 h
[27] = tested on: LoVo; test: Induction of apoptosis in human LoVo cells assessed as increase in caspase3/7 activity at 15 uM using Ac-DEVD-ACC as substrate pretreated for 24 hrs followed by substrate addition measured for 2 hrs by fluorescence assay relative to control; assay type: functional
[28] = tested on: HL60/MX2; test: Cytotoxicity against human HL60/MX2 cells after 72 hrs by sulforhodamine B assay; assay type: functional, cell-based; settings: HL60/MX2, 72 h
[29] = tested on: LoVo; test: Induction of apoptosis in human LoVo cells assessed as late apoptotic cells at 15 uM after 24 hrs by APC-Annexin-V/propidium iodide staining based flow cytometric method relative to control; assay type: functional
[30] = tested on: Mus musculus; test: Toxicity in BALB/c mdb mouse implanted with mouse 4T1 cells assessed as hemoglobin level at 450 umol/kg, ip administered five times weekly measured at 29 day post cell innoculum (reference value: 15.1 +/- 1.5 g/dl); assay type: organism-based; settings: in vivo, 696 h
[31] = tested on: Mus musculus; test: Toxicity in BALB/c mdb mouse implanted with mouse 4T1 cells assessed as body weight loss at 450 umol/kg, ip administered five times weekly measured on day 11; assay type: organism-based; settings: in vivo
[32] = tested on: MES-SA/Dx5; test: Cytotoxicity against human MESSA/DX5 cells after 72 hrs by sulforhodamine B assay; assay type: functional, cell-based; settings: MES-SA/Dx5, 72 h
[33] = tested on: Mus musculus; test: Toxicity in BALB/c mdb mouse implanted with mouse 4T1 cells assessed as serum PLT level at 450 umol/kg, ip administered five times weekly measured at 29 day post cell innoculum (reference value: 972 +/- 157 10^3/uL); assay type: organism-based; settings: in vivo, 696 h
[34] = tested on: LoVo; test: Induction of apoptosis in human LoVo cells assessed as increase in early apoptotic cells at 15 uM after 24 hrs by APC-Annexin-V/propidium iodide staining based flow cytometric method relative to control; assay type: functional
[35] = tested on: LoVo/DX; test: Induction of apoptosis in human LoVo/DX cells assessed as loss of mitochondrial membrane potential at 15 uM after 24 hrs by JC-1 staining based flow cytometric method relative to control; assay type: functional
[36] = tested on: Mus musculus; test: Toxicity in BALB/c mdb mouse implanted with mouse 4T1 cells assessed as lung weight at 450 umol/kg, ip administered five times weekly measured at 29 day post cell innoculum (reference value: 0.2 +/- 0.018 g); assay type: organism-based; settings: in vivo, 696 h
[37] = tested on: 4T1; test: Anti-tumor activity against mouse 4T1 cells implanted in BALB/c mdb mouse assessed as tumor growth inhibition at 450 umol/kg, ip administered five times weekly measured on day 29 post cell innoculum relative to control; assay type: functional; settings: 4T1, ip, 696 h, read-out: TGI
[38] = tested on: Mus musculus; test: Toxicity in BALB/c mdb mouse implanted with mouse 4T1 cells assessed as RBC level at 450 umol/kg, ip administered five times weekly measured at 29 day post cell innoculum (reference value: 8.6 +/- 0.9 10^6/uL); assay type: organism-based; settings: in vivo, 696 h
[39] = tested on: LoVo; test: Induction of apoptosis in human LoVo cells assessed as loss of mitochondrial membrane potential at 15 uM after 24 hrs by JC-1 staining based flow cytometric method relative to control; assay type: functional
[40] = Induction of apoptosis in human LoVo/DX cells assessed as increase in caspase3/7 activity at 15 uM using Ac-DEVD-ACC as substrate pretreated for 24 hrs followed by substrate addition measured for 2 hrs by fluorescence assay relative to control; assay type: functional
[41] = tested on: Mus musculus; test: Toxicity in BALB/c mdb mouse implanted with mouse 4T1 cells assessed as hematocrit at 450 umol/kg, ip administered five times weekly measured at 29 day post cell innoculum (reference value: 39.9 +/- 3.7 %); assay type: organism-based; settings: in vivo, 696 h
[42] = tested on: Mus musculus; test: Toxicity in BALB/c mdb mouse implanted with mouse 4T1 cells assessed as serum creatinine level at 450 umol/kg, ip administered five times weekly measured at 29 day post cell innoculum (reference value: 9.3 +/- 1.2 umol/L); assay type: organism-based; settings: in vivo, 696 h
[43] = tested on: LoVo; test: Induction of apoptosis in human LoVo cells assessed as necrotic cells at 15 uM after 24 hrs by APC-Annexin-V/propidium iodide staining based flow cytometric method (reference value: 10%); assay type: functional
[44] = tested on: Mus musculus; test: Toxicity in BALB/c mdb mouse implanted with mouse 4T1 cells assessed as serum urea level at 450 umol/kg, ip administered five times weekly measured at 29 day post cell innoculum (reference value: 3.8 +/- […]); assay type: organism-based; settings: in vivo, 696 h
[45] = tested on: LoVo; test: Cytotoxicity against human LoVo cells assessed as cell death at >15 uM after 24 hrs; assay type: cell-based
[46] = tested on: Mus musculus; test: Toxicity in BALB/c mdb mouse implanted with mouse 4T1 cells assessed as body weight loss at 450 umol/kg, ip administered five times weekly measured 3 times weekly during compound dosing; assay type: organism-based; settings: in vivo
[47] = tested on: Mus musculus; test: Toxicity in BALB/c mdb mouse implanted with mouse 4T1 cells assessed as serum AST level at 450 umol/kg, ip administered five times weekly measured at 29 day post cell innoculum (reference value: 136 +/- 10.3 U/L); assay type: organism-based; settings: in vivo, 696 h

CC(C)COP(=O)(CCN=C=S)OCC(C)C
Ratio IC50 [1]: 5 | pIC50 [2]: 5.72 | Ratio IC50 [3]: 10 | Ratio IC50 [4]: 10 | pIC50 [5]: 5.59 | Ratio IC50 [6]: 5

O=P1(N(CCCl)CCCl)NCCCO1 (stereo unspecified) [CYCLOPHOSPHAMIDE ANHYDROUS]
inhibition in vivo at 25 µmol/kg [7]: 33.3%

CCOP(=O)(CCCCCCN=C=S)OCC
Activity [8]: inactive | Activity [9]: inactive | Ratio IC50 [1]: 5 | Ratio IC50 [10]: 7.8 | Activity [11]: Non-Toxic | pIC50 [12]: 4.93 | pIC50 [2]: 5.68 | Ratio IC50 [3]: 10 | Activity [13]: 28.2 U/L | Activity [14]: Toxic | Activity [15]: Active | Activity [16]: Active | pIC50 [17]: 4.76 | Activity [18]: 62 | pIC50 [19]: 5.51 | Activity [20]: 0.14 g | Activity [21]: 201.2 ×10³ /uL | pIC50 [22]: 4.98 | Activity [23]: 0.493 g | Activity [24]: inactive | Activity [25]: 1.24 g | pIC50 [26]: 6.30 | pIC50 [5]: 5.41 | fold change (FC) [27]: 3 | pIC50 [28]: 5.40 | Activity [29]: inactive | Activity [30]: 17.3 g/dL | Activity [31]: > 5% | pIC50 [32]: 5.00 | Activity [33]: 751 ×10³ /uL | Activity [34]: inactive | Activity [35]: Active | Activity [36]: 0.219 g | inhibition in vivo at 450 µmol/kg [37]: 7.1% | Activity [38]: 10.1 ×10⁶ /uL | Activity [39]: Active | fold change (FC) [40]: 3 | Activity [41]: 47.7% | Activity [42]: 9.3 µmol/L | Activity [43]: Active | Activity [44]: 4.6 mmol/L | Activity [45]: Toxic | Activity [46]: <= 10% | Activity [47]: 142.5 U/L
